Results published in ChEMBL document CHEMBL2321873, “1-(4-Phenylpiperazin-1-yl)-2-(1H-pyrazol-1-yl)ethanones as novel CCR1 antagonists” (Bioorg Med Chem Lett, 2013).
Calls of active or inactive are those of the source.

Legend:
[1] = biological target: T1, Atypical chemokine receptor 1 (Homo sapiens) (UniProt Q16570); experiment: Antagonist activity at Duffy (unknown origin) assessed as inhibition of chemotaxis at 10 uM
T1 sequence (whole entry): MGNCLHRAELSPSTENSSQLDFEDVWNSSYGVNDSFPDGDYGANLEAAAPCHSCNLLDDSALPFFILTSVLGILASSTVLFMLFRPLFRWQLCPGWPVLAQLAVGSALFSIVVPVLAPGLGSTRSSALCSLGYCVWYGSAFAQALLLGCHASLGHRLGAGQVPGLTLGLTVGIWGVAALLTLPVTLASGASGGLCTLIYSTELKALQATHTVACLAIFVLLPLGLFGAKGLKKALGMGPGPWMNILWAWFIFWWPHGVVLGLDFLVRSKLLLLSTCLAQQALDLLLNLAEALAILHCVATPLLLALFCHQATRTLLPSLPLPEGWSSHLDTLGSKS

[2] = biological target: T2, C-X-C chemokine receptor type 2 (Homo sapiens) (UniProt P25025); experiment: Antagonist activity at CXCR2 (unknown origin) assessed as inhibition of chemotaxis at 10 uM
T2 sequence (whole entry): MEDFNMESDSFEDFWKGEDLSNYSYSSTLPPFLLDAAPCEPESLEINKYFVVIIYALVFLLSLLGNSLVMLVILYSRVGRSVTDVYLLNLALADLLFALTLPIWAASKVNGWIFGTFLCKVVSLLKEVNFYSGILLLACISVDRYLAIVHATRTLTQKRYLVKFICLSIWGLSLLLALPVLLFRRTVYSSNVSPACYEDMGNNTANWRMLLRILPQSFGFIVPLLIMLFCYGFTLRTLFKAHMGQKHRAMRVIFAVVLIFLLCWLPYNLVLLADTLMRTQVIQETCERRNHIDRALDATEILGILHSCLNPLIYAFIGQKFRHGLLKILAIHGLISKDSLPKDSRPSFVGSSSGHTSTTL

[3] = biological target: T3, C-C chemokine receptor type 6 (Homo sapiens) (UniProt P51684); experiment: Antagonist activity at CCR6 (unknown origin) assessed as inhibition of chemotaxis at 10 uM
T3 sequence (whole entry): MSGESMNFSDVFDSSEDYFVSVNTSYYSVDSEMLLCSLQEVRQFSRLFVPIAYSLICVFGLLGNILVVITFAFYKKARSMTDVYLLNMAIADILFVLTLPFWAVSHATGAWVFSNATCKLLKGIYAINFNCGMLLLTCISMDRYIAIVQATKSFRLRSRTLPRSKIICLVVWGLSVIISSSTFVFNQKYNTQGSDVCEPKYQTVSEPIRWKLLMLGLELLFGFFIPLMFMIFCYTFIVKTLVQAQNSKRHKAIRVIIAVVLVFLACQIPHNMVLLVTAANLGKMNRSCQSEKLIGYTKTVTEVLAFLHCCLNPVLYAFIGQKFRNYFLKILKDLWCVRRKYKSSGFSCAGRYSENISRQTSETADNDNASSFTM

[4] = biological target: T4, G protein-coupled receptor (Human herpesvirus 8) (UniProt Q76SF8); experiment: Antagonist activity at HHV8 ORF74 assessed as inhibition of calcium flux at 10 uM; assay type: functional; settings: Human gammaherpesvirus 8
T4 sequence (whole entry): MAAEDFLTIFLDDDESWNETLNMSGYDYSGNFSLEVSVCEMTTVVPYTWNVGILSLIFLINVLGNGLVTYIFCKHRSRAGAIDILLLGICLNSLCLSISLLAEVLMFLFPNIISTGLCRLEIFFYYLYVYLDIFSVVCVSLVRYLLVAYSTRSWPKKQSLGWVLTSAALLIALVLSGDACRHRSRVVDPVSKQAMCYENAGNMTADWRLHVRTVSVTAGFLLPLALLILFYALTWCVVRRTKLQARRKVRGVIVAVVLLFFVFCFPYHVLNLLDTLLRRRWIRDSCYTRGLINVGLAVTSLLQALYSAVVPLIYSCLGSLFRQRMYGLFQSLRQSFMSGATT

[5] = biological target: C-C chemokine receptor type 8 (Homo sapiens) (UniProt P51685); experiment: Antagonist activity at CCR8 (unknown origin) assessed as inhibition of calcium flux at 10 uM; assay type: functional
Chain of C-C chemokine receptor type 8 (Homo sapiens) (P51685 whole entry): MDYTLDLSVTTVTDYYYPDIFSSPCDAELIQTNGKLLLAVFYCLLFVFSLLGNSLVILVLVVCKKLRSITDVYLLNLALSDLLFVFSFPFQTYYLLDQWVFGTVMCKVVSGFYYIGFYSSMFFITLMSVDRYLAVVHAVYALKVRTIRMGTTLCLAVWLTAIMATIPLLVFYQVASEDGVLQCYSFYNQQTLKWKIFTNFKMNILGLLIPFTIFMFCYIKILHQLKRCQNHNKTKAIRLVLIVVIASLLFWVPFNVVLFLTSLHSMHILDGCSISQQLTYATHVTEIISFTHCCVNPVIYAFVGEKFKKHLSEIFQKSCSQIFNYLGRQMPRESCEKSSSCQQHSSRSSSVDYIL

[6] = biological target: T4, G protein-coupled receptor (Human herpesvirus 8); experiment: Binding affinity to HHV8 ORF74 at 10 uM by radioligand displacement assay; settings: Human gammaherpesvirus 8
[7] = biological target: T1, Atypical chemokine receptor 1 (Homo sapiens); experiment: Binding affinity to Duffy (unknown origin) at 10 uM by radioligand displacement assay
[8] = biological target: T5, C-C chemokine receptor type 4 (Homo sapiens) (UniProt P51679); experiment: Binding affinity to CCR4 (unknown origin) at 10 uM by radioligand displacement assay
T5 sequence (whole entry): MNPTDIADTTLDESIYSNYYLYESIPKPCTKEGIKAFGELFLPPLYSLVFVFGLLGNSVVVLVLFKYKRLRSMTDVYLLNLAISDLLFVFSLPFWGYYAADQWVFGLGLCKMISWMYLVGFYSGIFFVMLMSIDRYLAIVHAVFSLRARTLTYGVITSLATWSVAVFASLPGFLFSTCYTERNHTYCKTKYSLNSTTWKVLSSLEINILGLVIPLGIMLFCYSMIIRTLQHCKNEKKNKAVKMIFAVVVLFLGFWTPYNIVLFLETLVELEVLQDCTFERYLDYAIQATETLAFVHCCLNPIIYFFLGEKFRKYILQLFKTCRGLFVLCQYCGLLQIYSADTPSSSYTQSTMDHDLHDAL

[9] = biological target: T6, C-C chemokine receptor type 3 (Homo sapiens) (UniProt P51677); experiment: Binding affinity to CCR3 (unknown origin) at 10 uM by radioligand displacement assay
T6 sequence (whole entry): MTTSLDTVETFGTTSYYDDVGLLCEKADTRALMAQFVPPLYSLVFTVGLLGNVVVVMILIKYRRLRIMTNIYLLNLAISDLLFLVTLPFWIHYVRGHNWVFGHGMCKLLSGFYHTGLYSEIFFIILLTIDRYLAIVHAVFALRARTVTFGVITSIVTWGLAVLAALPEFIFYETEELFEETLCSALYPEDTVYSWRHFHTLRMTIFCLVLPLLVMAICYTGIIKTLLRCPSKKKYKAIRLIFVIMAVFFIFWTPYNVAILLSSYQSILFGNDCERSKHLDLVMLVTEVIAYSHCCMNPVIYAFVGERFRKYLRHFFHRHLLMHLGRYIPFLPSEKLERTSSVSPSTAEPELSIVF

[10] = biological target: C-C chemokine receptor type 1 (Mus musculus, UniProt P51675); experiment: Displacement of [125I]-CCL3/MIP-1alpha from CCR1 in mouse WEHI274.1 cells; assay type: cell-based
Chain of C-C chemokine receptor type 1 (P51675 whole entry): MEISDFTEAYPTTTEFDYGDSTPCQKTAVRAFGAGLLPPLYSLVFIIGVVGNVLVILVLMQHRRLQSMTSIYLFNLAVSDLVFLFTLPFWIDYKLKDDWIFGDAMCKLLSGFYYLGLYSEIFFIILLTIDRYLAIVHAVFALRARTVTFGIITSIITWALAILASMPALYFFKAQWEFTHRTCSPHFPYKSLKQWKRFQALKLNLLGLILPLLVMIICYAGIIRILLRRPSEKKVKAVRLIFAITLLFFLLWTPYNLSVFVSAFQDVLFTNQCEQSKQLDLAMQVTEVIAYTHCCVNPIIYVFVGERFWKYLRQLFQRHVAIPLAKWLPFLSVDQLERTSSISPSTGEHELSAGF

Rattus norvegicus = experiment: Toxicity in Sprague-Dawley rat assessed as effect on body weight at 70 to 360 mg/kg, po after 7 days; assay type: organism-based; design: dose 70-360 mg/kg, route oral; settings: in vivo, 168 h

COc1cc(N2CCN(C(=O)Cn3nc(C(F)(F)F)c(Cl)c3C)CC2)ccc1Cl
inactive: inhibition [1] | inhibition [2] | inhibition [3] | inhibition [4] | inhibition [5] | Activity [6] | Activity [7] | Activity [8] | Activity [9]
Non-toxic: Activity (Rattus norvegicus)
3 µM: IC50 [10]
